In patent US9708336B2, “Metallo-beta-lactamase inhibitors” (priority 2014, dated 2017):
Like-named read-outs stand apart in the source and are kept apart here.

Key:
NDM-1 = NDM-1 (Klebsiella pneumoniae, UniProt C7C422); assay: biochemical; type: biochemical; conditions: read-out: NDM-1 IC50
IMP-1 = IMP-1 (Serratia marcescens, UniProt P52699); assay: biochemical; type: biochemical; conditions: read-out: IMP-1 IC50
VIM-1 = VIM-1 (Pseudomonas aeruginosa (strain ATCC 15692 / DSM 22644 / CIP 104116 / JCM 14847 / LMG 12228 / 1C / PRS 101 / PAO1), UniProt A0A0F7KYQ8); assay: Enzyme activity: determination of IC50, fluorescence assay with CCF2-FA substrate (VIM-1); type: biochemical; conditions: read-out: VIM-1 IC50
[1] = system: Escherichia coli expressing NDM-1 (CLB30016); assay: Antibiotic potentiation activity: synergistic concentration (MITC95) with imipenem, OD600 growth; type: cell-based
Procedure, shortened: (§1)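 Compound activity is tested with and without imipenem, which is present at 4 μg/ml (or 1 μg/ml) in the well. Bacteria in 1.1× CAMHB are incubated 22–24 h at 35 °C; absorbance gives the growth endpoint.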

[2] = system: Klebsiella pneumoniae expressing VIM-1 (IHMA599644); assay: as above; type: cell-based
Procedure, shortened: as §1

[3] = system: Serratia marcescens expressing IMP-1 (CL5741); assay: as above; type: cell-based
Procedure, shortened: as §1

[4] = fluorescence assay with CCF2-FA substrate
[5] = concentration giving 95% inhibition of bacterial growth
[6] = NDM-1 enzyme, CCF2-FA fluorescence assay
[7] = IMP-1 enzyme, CCF2-FA fluorescence assay
[8] = VIM-1 enzyme, CCF2-FA fluorescence assay
[9] = Escherichia coli expressing NDM-1 (CLB30016), 95% growth inhibition
[10] = Klebsiella pneumoniae expressing VIM-1 (IHMA599644), 95% growth inhibition
[11] = Serratia marcescens expressing IMP-1 (CL5741), 95% growth inhibition
[12] = NDM-1 enzyme, CCF2-FA substrate
[13] = IMP-1 enzyme, CCF2-FA substrate
[14] = VIM-1 enzyme, CCF2-FA substrate
[15] = (CLB30016, NDM-1), 95% growth inhibition
[16] = Klebsiella pneumoniae IHMA599644 (VIM-1), 95% growth inhibition
[17] = Serratia marcescens CL5741 (IMP-1), 95% growth inhibition

Sequence of IMP-1 (P52699 whole entry, looked up): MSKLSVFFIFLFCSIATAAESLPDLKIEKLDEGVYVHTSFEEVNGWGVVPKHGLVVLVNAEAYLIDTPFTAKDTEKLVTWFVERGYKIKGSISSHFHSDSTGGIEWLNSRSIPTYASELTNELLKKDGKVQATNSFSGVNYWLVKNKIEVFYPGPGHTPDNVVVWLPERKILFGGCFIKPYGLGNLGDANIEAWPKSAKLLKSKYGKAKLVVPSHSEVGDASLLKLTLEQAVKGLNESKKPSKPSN
Sequence of NDM-1 (C7C422 whole entry, looked up, species assumed): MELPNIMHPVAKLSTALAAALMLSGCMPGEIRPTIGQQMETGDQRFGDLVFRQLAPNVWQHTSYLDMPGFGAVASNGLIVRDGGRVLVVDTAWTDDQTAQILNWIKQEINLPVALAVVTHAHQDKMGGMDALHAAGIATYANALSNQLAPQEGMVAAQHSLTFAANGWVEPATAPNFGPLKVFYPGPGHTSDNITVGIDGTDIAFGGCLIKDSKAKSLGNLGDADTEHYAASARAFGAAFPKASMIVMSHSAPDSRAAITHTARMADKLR

| Structure (SMILES) | IC50 (NDM-1; [6]) | IC50 (IMP-1; [7]) | IC50 (VIM-1; [8]) | Escherichia coli MITC95 [1, 9] | Klebsiella pneumoniae MITC95 [2, 10] | Serratia marcescens MITC95 [3, 11] | IC50 (NDM-1; [12]) | IC50 (IMP-1; [13]) | IC50 (VIM-1; [14]) | Escherichia coli MITC95 [1, 15] | Klebsiella pneumoniae MITC95 [2, 16] | Serratia marcescens MITC95 [3, 17] | also measured |
| --- | --- | --- | --- | --- | --- | --- | --- | --- | --- | --- | --- | --- | --- |
| C[N+]1(C)CCC(c2ccc(-c3cccc(S(N)(=O)=O)c3-c3nnn[nH]3)cc2)CC1.O=C([O-])C(F)(F)F [Example 33, 1,1-dimethyl-4-(3′-sulfamoyl-2′-(1H-tetrazol-5-yl)-[1,1′-biphenyl]-4-yl)piperidin-1-ium 2,2,2-trifluoroacetate] | – | – | – | – | – | – | – | – | – | – | – | – | IC50 (NDM-1; [4]): 16.6 nM; IC50 (IMP-1; [4]): 70.6 nM; IC50 (VIM-1; [4]): 832 nM; Escherichia coli expressing NDM-1 (CLB 30016) MITC95 [1, 5]: 1.172 µM; Klebsiella pneumoniae expressing VIM-1 (IHMA 599644) MITC95 [2, 5]: 100 µM; Serratia marcescens expressing IMP-1 (CL5741) MITC95 [3, 5]: 1.172 µM |
| C[N+]1(C)CC(c2ccc(-c3ccc(C(F)(F)F)c(S(N)(=O)=O)c3-c3nn[nH]n3)cc2)C1 [Example 435, 1,1-dimethyl-3-(3′-sulfamoyl-2′-(2H-tetrazol-5-yl)-4′-(trifluoromethyl)-[1,1′-biphenyl]-4-yl)azetidin-1-ium] | 12 nM | 11.1 nM | 2.37 nM | 1.281 µM | 3.125 µM | 0.25 µM | – | – | – | – | – | – | – |
| NS(=O)(=O)c1c(C(F)(F)F)ccc(-c2ccc(C3CCN(CC4CCCCN4)CC3)cc2)c1-c1nnn[nH]1 (stereo not drawn) [Example 676, 4′-[1-(piperidin-2-ylmethyl)piperidin-4-yl]-2-(1H-tetrazol-5-yl)-4-(trifluoromethyl)biphenyl-3-sulfonamide] | – | – | – | – | – | – | 5.59 nM | 1.26 nM | 9.1 nM | 12.5 µM | >200 µM | 6.25 µM | – |
| NS(=O)(=O)c1c(C(F)(F)F)ccc(-c2ccnc3ccccc23)c1-c1nn[nH]n1 [Example 273, 3-(quinolin-4-yl)-2-(2H-tetrazol-5-yl)-6-(trifluoromethyl)benzenesulfonamide] | 0.581 nM | 3.21 nM | 0.165 nM | 4.688 µM | 6.25 µM | 0.3906 µM | – | – | – | – | – | – | – |
| NS(=O)(=O)c1c(C(F)(F)F)ccc(N2CCC[C@H](O)C2)c1-c1nnn[nH]1 [Example 657, 3-[(3S)-3-hydroxypiperidin-1-yl]-2-(1H-tetrazol-5-yl)-6-(trifluoromethyl)benzenesulfonamide] | – | – | – | – | – | – | 9.66 nM | 10.2 nM | 2.09 nM | 2.344 µM | 4.688 µM | 0.7813 µM | – |
| NS(=O)(=O)c1c(C(F)(F)F)ccc(N2CCC3(CCNC3)CC2)c1-c1nnn[nH]1 [Example 775, 3-(2,8-diazaspiro[4.5]dec-8-yl)-2-(1H-tetrazol-5-yl)-6-(trifluoromethyl) benzenesulfonamide] | – | – | – | – | – | – | – | – | – | – | – | – | IC50 (NDM-1; [4]): 9.04 nM; IC50 (IMP-1; [4]): 35.8 nM; IC50 (VIM-1; [4]): 5.19 nM; Escherichia coli MITC95 ([1]; CLB30016 (NDM-1), 95% inhibition of bacterial growth): 3.125 µM; Klebsiella pneumoniae MITC95 ([2]; IHMA599644 (VIM-1), 95% inhibition of bacterial growth): 12.5 µM; Serratia marcescens MITC95 ([3]; CL5741 (IMP-1), 95% inhibition of bacterial growth): 6.25 µM |
| N#Cc1cccc2ncc(-c3cccc(S(N)(=O)=O)c3-c3nnn[nH]3)n12 [Example 649, 3-(5-cyanoimidazo[1,2-a]pyridin-3-yl)-2-(1H-tetrazol-5-yl)benzenesulfonamide] | – | – | – | – | – | – | 2.87 nM | 48.4 nM | 12.8 nM | 2.344 µM | 12.5 µM | 3.125 µM | – |
| NS(=O)(=O)c1cccc(-c2ccc(CN3CNC(=O)C3)cc2)c1-c1nnn[nH]1 [Example 342, 4′-[(4-oxoimidazolidin-1-yl)methyl]-2-(1H-tetrazol-5-yl)biphenyl-3-sulfonamide] | 4.64 nM | 46 nM | 80.4 nM | 3.125 µM | 25 µM | 0.7813 µM | – | – | – | – | – | – | – |
| Nc1ccc(-c2cccc(S(N)(=O)=O)c2-c2nnn[nH]2)c2ccncc12 [Example 415, 3-(8-amino-5-isoquinolyl)-2-(1H-tetrazol-5-yl)benzenesulfonamide] | 0.58 nM | 32.3 nM | 1.1 nM | 0.5859 µM | 3.125 µM | 1.172 µM | – | – | – | – | – | – | – |
